Test results from patent publication US7737185B2 (Repros Therapeutics Inc., priority 2001, dated 2010).

Key:
[1] = test system: serum LH, FSH; assay: Placebo controlled challenge study Androxal vs Androgel: serum LH and FSH; format: in vivo, human
Experimental: (§1) Androgel® (Solvay Pharmaceuticals, Inc.) consists of a cream that administers exogenous testosterone in a transdermal matrix.
(§2) The study enrolled 62 hypogonadal men with testosterone levels less than 300 ng/dl (normal 298-1034 ng/dl) that were randomized into 6 different arms, three doses of Androxal™ (12.5 mg, 25 mg, and 50 mg), placebo, and both high and low doses of Androgel®. Half of the men in each of the Androxal™ and placebo arms were randomized into cohorts that underwent in-clinic sessions on days 1 and 14 to determine pharmacokinetic parameters for Androxal™ as well as cyclical changes in testosterone. The placebo and Androxal™ doses were administered in a double blind fashion. The Androgel® cream was administered in an open label fashion. Half of the Androgel® patients underwent in-clinic sessions similar to the other patients in the study. Following the two week drug exposure patients were followed for an additional seven to ten days to determine the status of their testosterone levels.

[2] = test system: total testosterone; assay: Placebo controlled challenge study Androxal vs Androgel: total testosterone; format: in vivo, human; details: for Mean increase in testosterone from baseline: hypogonadal men, two weeks
Experimental: as §1, §2

[3] = test system: triglycerides; assay: Placebo controlled challenge study Androxal vs Androgel: triglycerides; format: in vivo, human; details: after two weeks of therapy, non-dose dependent; placebo 5.9% reduction
Experimental: as §1, §2

[4] = Placebo controlled challenge study Androxal vs Androgel: side effects; format: in vivo, human; details: hypogonadal men, two week exposure
Experimental: as §1, §2

[5] = test system: total serum testosterone; assay: Serum testosterone in male baboons given Clomid, Enclomid or Zuclomid; format: in vivo; details: for Effect on total serum testosterone: 1.5 mg/kg for 12 days, male baboons
Text: (§3) The samples analyzed were sera taken on the day of first treatment before being given test article (day 0), after 12 days of treatment (day 12) and 7 days after the last treatment (end or wash-out).

[6] = test system: serum cholesterol; assay: Serum cholesterol in male baboons; format: in vivo; details: 1.5 mg/kg for 12 days
Text: as §3

[7] = test system: serum LH, FSH, PRL; assay: Serum LH, FSH and prolactin in male baboons; format: in vivo; details: during the study
Text: as §3

[8] = test system: FSH, LH, testosterone; details: cited from earlier work
[9] = following a single dose; cited from earlier work

CCN(CC)CCOc1ccc(/C(=C(\Cl)c2ccccc2)c2ccccc2)cc1 [Enclomid, trans-clomiphene]
Serum LH in the follow-up period ([1]; 7-10 days after cessation of daily treatment): remained high | Serum FSH in the follow-up period ([1]; after cessation of treatment): remains high | Serum levels of LH during treatment ([1]; hypogonadal male subjects (FIG. 5)): statistically significant increase | Serum levels of FSH during treatment ([1]; hypogonadal male subjects (FIG. 6)): statistically significant increase | Coefficient of variation (CV) of mean total testosterone ([2]; 50 mg dose, after 15 days): 29% | Mean total testosterone ([2]; 50 mg dose, after 15 days): 589 ± 172 ng/dL | Mean increase in testosterone from baseline ([2]; high dose (50 mg) oral): 294 ng/dL | Mean increase in testosterone from baseline ([2]; low dose (12.5 mg) oral): 169 ng/dL | Mean increase in testosterone from baseline ([2]; mid dose (25 mg) oral): 247 ng/dL | Platelet count (12-day treatment): lowering of the platelet count | Eosinophil counts (male baboons): raising the counts | Lymphocytes, count and per cent (male baboons): increase | Red blood cell population (male baboons): substantive effects | Per cent of granulocytes in the blood (very strong after the 7-day washout period): strong effect | Reduction in triglycerides (average decrease) [3]: 19.1% | Side effects different than placebo [4]: no side effects noted | Effect on total serum testosterone [5]: significant increases in total serum testosterone | Change in total serum testosterone after cessation of treatment ([5]; between day 12 and day 18 (washout)): significant drop | Decrease in serum cholesterol levels [6]: 8% | Serum prolactin (PRL) [7]: decrease in serum prolactin

CCN(CC)CCOc1ccc(C(=C(Cl)c2ccccc2)c2ccccc2)cc1 [Clomid, clomiphene]
FSH, LH after treatment ([8]; both young and old men): increases in FSH, LH | Free and total testosterone after treatment ([8]; men, young men showing significant increases): increases in free and total testosterone | Variability of total testosterone levels (coefficients of variation) ([5]; day 6 and later, compared to animals receiving Enclomid): more variable total testosterone levels | Change in serum cholesterol levels [6]: slight increase

CCN(CC)CCOc1ccc(/C(=C(/Cl)c2ccccc2)c2ccccc2)cc1 [Zuclomid, cis-clomiphene, reference compound]
Hematocrit (male baboons): demonstrated a statistical difference | Red blood cell population (male baboons): substantive effects | Residual blood levels [9]: in excess of one month | Effect on total serum testosterone [5]: did not raise total serum testosterone to any extent | Increase in serum cholesterol levels [6]: 22%
